Source: patent US5068247A, “2-aminopentanoic acid compounds and their use as immunosuppressants” (priority 1989, dated 1991)
Like-named read-outs stand apart in the source and are kept apart here.

Columns and labels:
[1] = system: IL-2 production in mouse allogenic MLC; assay: suppression of IL-2 production in mouse allogenic MLC; format: cell-based
Description: Mouse allogenic MLC was carried out as follows:
After termination of culture, the supernatant was collected and used as the supernatant of mouse allogenic MLC.
The IL-2 and IL-3 activities in the supernatant of mouse allogenic MLC were assayed in the same way as in Experiment Example 4.

[2] = system: allo-specific cytotoxic antibody in serum of EL4-immunized BALB/c mice; assay: suppression of allo-specific cytotoxic antibody production induced by allogenic cell immunization of mouse; format: in vivo
Description: Male 5- to 7-week-old BALB/c mice were immunized with leukemia cell EL4 derived from C57BL/6 mice (10^7 cells/mouse, intraperitoneal administration) in the same way as in Experiment Example 9, and the […] Nine to ten days after immunization, a serum was collected from the mice. Fifty μl of the two-fold serial dilution of the serum, 50 μl of a guinea pig complement and EL4 cell suspension labelled with ^51 Cr as the target cell (5×10^4 cells/ml, 100 μl) were together added to a 96-well microtest plate. After incubation at 37° C. for 1 hour, the amount of ^51 Cr released in the supernatant was measured, and the complement-dependent cytotoxicity was calculated by the following formula. [formula]
The value of allo-specific cytotoxic antibody determined as above was expressed by the titer calculated on the basis of the concentration at which the releasing amount of ^51 Cr was 50% of that of ^51 Cr-labelled target cells treated with 0.1 N HCl.

MOLT4 = assay: cytotoxicity to cultured tumor cell line MOLT4; format: cell-based, human
Description: (§1) Cytotoxicity to various human tumor cell lines was examined as follows:
(§2) Cells of human cell lines, K562, MOLT4, U937 and HL60 were respectively suspended to the concentration of 4×10^5 cells/ml in the RPMI1640 culture medium supplemented with 20% FCS. Fifty μl of each suspension was added to each well of a 96-well microtest plate to which 50 μl of the test solution had been added. After culturing the suspension at 37° C. in an atmosphere of 5% carbon dioxide for 72 hours, the absorbancy at 570 nm was measured in the same way as with the colorimetry using MTT in Experiment Example 1, and the percent suppression was calculated by the following formula, which was used as an index of cytotoxicity.

[3] = cytotoxicity to cultured tumor cell line MOLT4; format: cell-based, human; settings: human, molt4 cells, read-out: Suppression
Description: as §1, §2

[4] = system: allo-reactive cytotoxic T cells in spleen of EL4-immunized BALB/c mice; assay: suppression of allo-reactive cytotoxic T cells induced by immunization of mouse with allogenic cells; format: in vivo
Description: Male 5- to 7-week-old BALB/c mice (H-2^d) were immunized with leukemia cell EL4 derived from C57BL/6 mice (H-2^b) (10^7 cells/mouse, intraperitoneal administration), and the test substance was administered intraperitoneally 5 times at the doses of 0.001 to 3 mg/kg/day or orally at the doses of 0.3 to 10 mg/kg/day from the day of immunization. Nine to ten days after immunization, the spleen was resected from the mice to prepare a single cell suspension and the suspension was used as effector cell suspension. The ^51 Cr-release assay was carried out in the same way as in Experiment Example 3, using EL4 cells as the target cells to measure the cytotoxic activity.
The activity of allo-reactive cytotoxic T cell is indicated by lytic unit (LU) per spleen. One lytic unit (LU) is defined as the number of effector cells required to cause 25% lysis of 5×10^3 target cells. At the same time, the body weight of mouse and number of spleen cells were also determined.

[5] = 0.003 mg/kg/day po × 10, Table 10D
[6] = 0.01 mg/kg/day po × 5, Table 10C
[7] = 0.01 mg/kg/day po × 10, Table 10D
[8] = 0.03 mg/kg/day po × 5, Table 10C
[9] = 0.03 mg/kg/day po × 10, Table 10D
[10] = 0.1 mg/kg/day po × 5, Table 10C
[11] = 0.1 mg/kg/day po × 10, Table 10D
[12] = 0.3 mg/kg/day po × 5, Table 10C
[13] = 0.3 mg/kg/day po × 10, Table 10D
[14] = 0.001 mg/kg/day ip × 5, Table 9C
[15] = 0.001 mg/kg/day po × 5, Table 9D
[16] = 0.003 mg/kg/day ip × 5, Table 9C
[17] = 0.003 mg/kg/day po × 5, Table 9D
[18] = 0.003 mg/kg/day po × 10, Table 9E
[19] = 0.01 mg/kg/day ip × 5, Table 9C
[20] = 0.01 mg/kg/day po × 5, Table 9D
[21] = 0.01 mg/kg/day po × 10, Table 9E
[22] = 0.03 mg/kg/day ip × 5, Table 9C
[23] = 0.03 mg/kg/day po × 5, Table 9D
[24] = 0.03 mg/kg/day po × 10, Table 9E
[25] = 0.1 mg/kg/day po × 10, Table 9E
[26] = 0.3 mg/kg/day po × 10, Table 9E

## CCCCCCCCCCCCC/C=C/C[C@@H](O)[C@H](O)[C@@](N)(CO)C(=O)O [Example 5]
[1]; 0.0001 μg/ml
  IL-2 activity: 3.2 U/ml
[1]; 0.001 μg/ml
  IL-2 activity: 2.9 U/ml
[1]; 0.01 μg/ml
  IL-2 activity: < 1.0 U/ml
[1]; 0.1 μg/ml
  IL-2 activity: < 1.0 U/ml
[1]; 1 μg/ml
  IL-2 activity: < 1.0 U/ml
[1]; Mus musculus, 48 h, 0.0001 μg/ml
  inhibition at 0.0001 µg/mL: 28.9%
[1]; Mus musculus, 48 h, 0.001 μg/ml
  inhibition at 0.001 µg/mL: 35.6%
[1]; Mus musculus, 48 h, 0.01 μg/ml
  inhibition at 0.01 µg/mL: 100%
[1]; Mus musculus, 48 h, 0.1 μg/ml
  inhibition at 0.1 µg/mL: 100%
[1]; Mus musculus, 48 h, 1 μg/ml
  inhibition at 1 µg/mL: 100%
[2]; [5]
  Allogenic cell-specific antibody in serum, suppression: 28.3%
  Allogenic cell-specific antibody in serum, titer: 147 ± 43
[2]; [6]
  Allogenic cell-specific antibody in serum, suppression: 0%
  Allogenic cell-specific antibody in serum, titer: 318 ± 75
[2]; [7]
  Allogenic cell-specific antibody in serum, suppression: 45.4%
  Allogenic cell-specific antibody in serum, titer: 112 ± 66
[2]; [8]
  Allogenic cell-specific antibody in serum, suppression: 37.8%
  Allogenic cell-specific antibody in serum, titer: 186 ± 100
[2]; [9]
  Allogenic cell-specific antibody in serum, suppression: 40.0%
  Allogenic cell-specific antibody in serum, titer: 123 ± 43
[2]; [10]
  Allogenic cell-specific antibody in serum, suppression: 61.5%
  Allogenic cell-specific antibody in serum, titer: 115 ± 19
[2]; [11]
  Allogenic cell-specific antibody in serum, suppression: 71.2%
  Allogenic cell-specific antibody in serum, titer: 59 ± 38
[2]; [12]
  Allogenic cell-specific antibody in serum, suppression: 69.6%
  Allogenic cell-specific antibody in serum, titer: 91 ± 67
[2]; [13]
  Allogenic cell-specific antibody in serum, suppression: 76.1%
  Allogenic cell-specific antibody in serum, titer: 49 ± 26
[2]; 1 mg/kg/day po × 5, Table 10C
  Allogenic cell-specific antibody in serum, suppression: 82.5%
  Allogenic cell-specific antibody in serum, titer: 52 ± 27
[2]; 1 mg/kg/day po × 10, Table 10D
  Allogenic cell-specific antibody in serum, suppression: 76.6%
  Allogenic cell-specific antibody in serum, titer: 48 ± 37
[2]; intraperitoneal or oral, Tables 10A to 10D
  allo-specific cytotoxic antibody production in serum (in words): strongly suppresses allo-specific cytotoxic antibody production in serum
MOLT4; 0.1 μg/ml
  Absorbancy: 1.031 ± 0.035
MOLT4; 1 μg/ml
  Absorbancy: 1.013 ± 0.013
MOLT4; 10 μg/ml
  Absorbancy: 0.967 ± 0.006
[3]; 0.1 μg/ml
  cytotoxicity at 72 h: 10.7%
[3]; 1 μg/ml
  cytotoxicity at 72 h: 12.2%
[3]; 10 μg/ml
  cytotoxicity at 72 h: 16.2%
[4]; [14]
  Body weight 9 days after immunization: 23.6 ± 1.1 g
  Cytotoxic T cell activity: 589 ± 415 LU/spleen
  Cytotoxic T cell activity, suppression: 49.7%
  Number of spleen cells: 1.8 ± 0.2 × 10^8 cell
[4]; [15]
  Body weight 10 days after immunization: 24.5 ± 1.7 g
  Cytotoxic T cell activity: 1929 ± 630 LU/spleen
  Cytotoxic T cell activity, suppression: 0%
  Number of spleen cells: 1.5 ± 0.2 × 10^8
[4]; [16]
  Body weight 9 days after immunization: 22.8 ± 1.6 g
  Cytotoxic T cell activity: 473 ± 265 LU/spleen
  Cytotoxic T cell activity, suppression: 59.6%
  Number of spleen cells: 1.8 ± 0.2 × 10^8 cell
[4]; [17]
  Body weight 10 days after immunization: 24.6 ± 1.1 g
  Cytotoxic T cell activity: 1069 ± 400 LU/spleen
  Cytotoxic T cell activity, suppression: 30.2%
  Number of spleen cells: 1.6 ± 0.3 × 10^8
[4]; [18]
  Body weight 10 days after immunization: 25.0 ± 0.7 g
  Cytotoxic T cell activity: 1936 ± 840 LU/spleen
  Cytotoxic T cell activity, suppression: 30.5%
  Number of spleen cells: 1.3 ± 0.3 × 10^8
[4]; [19]
  Body weight 9 days after immunization: 24.4 ± 1.1 g
  Cytotoxic T cell activity: 443 ± 141 LU/spleen
  Cytotoxic T cell activity, suppression: 62.1%
  Number of spleen cells: 2.2 ± 0.3 × 10^8 cell
[4]; [20]
  Body weight 10 days after immunization: 25.8 ± 1.3 g
  Cytotoxic T cell activity: 709 ± 189 LU/spleen
  Cytotoxic T cell activity, suppression: 53.7%
  Number of spleen cells: 1.6 ± 0.3 × 10^8
[4]; [21]
  Body weight 10 days after immunization: 25.2 ± 1.3 g
  Cytotoxic T cell activity: 996 ± 279 LU/spleen
  Cytotoxic T cell activity, suppression: 64.2%
  Number of spleen cells: 1.4 ± 0.2 × 10^8
[4]; [22]
  Body weight 9 days after immunization: 24.0 ± 2.2 g
  Cytotoxic T cell activity: 352 ± 148 LU/spleen
  Cytotoxic T cell activity, suppression: 69.9%
  Number of spleen cells: 2.1 ± 0.5 × 10^8 cell
[4]; [23]
  Body weight 10 days after immunization: 25.0 ± 1.2 g
  Cytotoxic T cell activity: 684 ± 181 LU/spleen
  Cytotoxic T cell activity, suppression: 55.3%
  Number of spleen cells: 1.6 ± 0.3 × 10^8
[4]; [24]
  Body weight 10 days after immunization: 24.2 ± 1.3 g
  Cytotoxic T cell activity: 799 ± 304 LU/spleen
  Cytotoxic T cell activity, suppression: 71.3%
  Number of spleen cells: 1.5 ± 0.3 × 10^8
[4]; 0.1 mg/kg/day ip × 5, Table 9C
  Body weight 9 days after immunization: 25.4 ± 1.9 g
  Cytotoxic T cell activity: 158 ± 86 LU/spleen
  Cytotoxic T cell activity, suppression: 86.5%
  Number of spleen cells: 1.9 ± 0.3 × 10^8 cell
[4]; 0.1 mg/kg/day po × 5, Table 9D
  Body weight 10 days after immunization: 25.2 ± 0.4 g
  Cytotoxic T cell activity: 638 ± 155 LU/spleen
  Cytotoxic T cell activity, suppression: 58.3%
  Number of spleen cells: 1.7 ± 0.4 × 10^8
[4]; [25]
  Body weight 10 days after immunization: 25.0 ± 0.7 g
  Cytotoxic T cell activity: 731 ± 318 LU/spleen
  Cytotoxic T cell activity, suppression: 73.8%
  Number of spleen cells: 1.4 ± 0.4 × 10^8
[4]; 0.3 mg/kg/day ip × 5, Table 9C
  Body weight 9 days after immunization: 26.0 ± 1.6 g
  Cytotoxic T cell activity: < 50 LU/spleen
  Cytotoxic T cell activity, suppression: > 95%
  Number of spleen cells: 1.9 ± 0.2 × 10^8 cell
[4]; 0.3 mg/kg/day po × 5, Table 9D
  Body weight 10 days after immunization: 25.4 ± 0.5 g
  Cytotoxic T cell activity: 609 ± 197 LU/spleen
  Cytotoxic T cell activity, suppression: 60.2%
  Number of spleen cells: 1.6 ± 0.3 × 10^8
[4]; [26]
  Body weight 10 days after immunization: 24.2 ± 1.3 g
  Cytotoxic T cell activity: 651 ± 257 LU/spleen
  Cytotoxic T cell activity, suppression: 76.6%
  Number of spleen cells: 1.6 ± 0.3 × 10^8
[4]; 1 mg/kg/day po × 5, Table 9D
  Body weight 10 days after immunization: 25.0 ± 1.4 g
  Cytotoxic T cell activity: 421 ± 12 LU/spleen
  Cytotoxic T cell activity, suppression: 72.5%
  Number of spleen cells: 1.7 ± 0.3 × 10^8
[4]; 1 mg/kg/day po × 10, Table 9E
  Body weight 10 days after immunization: 22.4 ± 0.5 g
  Cytotoxic T cell activity: 269 ± 179 LU/spleen
  Cytotoxic T cell activity, suppression: 90.3%
  Number of spleen cells: 1.5 ± 0.3 × 10^8
[4]; 5 times intraperitoneal or oral
  induction of allo-reactive cytotoxic T cells (in words): strongly suppresses the induction of allo-reactive cytotoxic T cells
[4]; 10 times oral, up to 0.03 mg/kg
  induction of allo-reactive cytotoxic T cells (in words), 10 oral administrations: significant suppressive activity up to the dose of 0.03 mg/kg
